{"source": "patent US20080254106A1", "about": "(SWITCH BIOTECH AG, priority 2004, published 2008)", "key": {"HaCaT keratinocytes": {"system": "HaCaT keratinocytes", "experiment": "Proliferation of HaCaT keratinocytes (BrDU incorporation)", "format": "cell-based", "details": "Homo sapiens, 48 hours treatment, relative to FCS stimulated positive control, mean of at least four experiments", "method": "As a negative control cells were incubated with KBM.\nFor this purpose 5×10^3 HaCaT keratinocytes were seeded into 60 wells of a 96 well-plate in 200 μl KBM/10% FCS each and incubated for 24 hours at 37° C. […] At the end of the second incubation period the medium was removed and cell proliferation was determined by BrDU incorporation (Roche, #1 669 915) according to the manufacturer's instructions. […] All other values were divided by the 100% value to obtain the relative percentage of proliferation. […] At least four independent experiments were performed."}, "[1]": {"system": "α-CD3 stimulated peripheral blood mononuclear cells", "experiment": "Proliferation of anti-CD3 stimulated PBMCs/T cells ([3H]-thymidine incorporation)", "format": "cell-based", "method": "Peripheral blood mononuclear cells (PBMCs) were isolated by Ficoll-gradient centrifugation from peripheral blood. 1×10^6 PBMCs/ml were re-suspended in RPMI/10% fetal calf serum (FCS) in 96-well plates in a concentration of 2×10^5 cells/well. […] As positive and negative controls PBMCs were used, which were stimulated by anti-CD3-antibody and non-stimulated PBMCs, respectively. The final concentration of the solvent DMSO was 0.1% in all examined wells. After two further days of incubation the cells were incubated with 1 μCi per well [^3H]-thymidine for 18 hours. The cells were then recovered on glass fibre filters by using a Micro 96 Harvester (Skatron Instruments, Lier, Norway). The incorporated radioactivity was analysed with a Packard Matrix 9600 Counter (Can berra Packard, Schwadorf, Austria). The experiments were carried out with the blood of three different donors. […] All other values were divided by the 100% value to obtain the relative percentage of proliferation."}, "TNFα": {"system": "TNFα", "experiment": "Secretion of TNFα of LPS stimulated THP-1 cells (ELISA)", "format": "cell-based", "details": "50 ng/ml LPS, six hours, concentration of 10 μmol/l and higher", "method": "After stimulation with 50 ng/ml LPS the release of TNFα was determined.\nAfter 2 h cells were stimulated with 50 ng/ml LPS. Six hours after LPS addition, culture supernatants were collected. TNFα concentrations were measured using an enzyme linked immunosorbent assay according to manufacturers protocol (R&D systems, #DTA00C). The TNFα concentrations reached after LPS stimulation without further treatment was set to 100%."}, "[2]": {"system": "transplanted human psoriatic skin biopsies", "experiment": "Human psoriatic skin transplant SCID mouse model", "format": "in vivo, SCID mice", "details": "50 mg/kg daily intraperitoneal, four weeks, in comparison to vehicle control animals", "description": "SCID mice were transplanted with human psoriatic skin biopsies. Two weeks after surgery therapy started. […] After four weeks of therapy the mice were sacrificed and biopsies were taken. 4 μm slices of the biopsies were stained with Masson trichrom. Epidermal areas were calculated. […] Treatment started two weeks after the transplantation. […] For therapy, 300 μl of a 5 mg/ml solution was daily injected intraperitonally (=50 mg/kg). The control group was injected in the same way with 300 μl vehicle. After four weeks the animals were sacrificed. The biopsies were removed, histologically stained (Masson trichrom) and examined for changes of the epidermal area."}, "[3]": {"experiment": "DTH (oxazolone) mouse ear swelling model", "format": "in vivo", "details": "topical 4%, 1%, 0.1% and 0.01% in acetone/olive oil, compared to placebo control", "method": "A mixture of acetone/olive oil (4:1 vol/vol) is used as vehicle. Ear thickness is measured before start of the treatment (day 0), before challenge (day 6), and 24 h after challenge (d7, ear swelling response) (instrumentation e.g. Mitutoyo-Messgeräte GmbH). In addition, at the end of the experiment ear weights are determined by weighing 8 mm punch biopsies taken from both ears of each individual animal."}, "monoamine oxidase A": {"biological_target": "T1, monoamine oxidase A (Homo sapiens, UniProt P21397)", "T1 sequence (P21397 1-527)": "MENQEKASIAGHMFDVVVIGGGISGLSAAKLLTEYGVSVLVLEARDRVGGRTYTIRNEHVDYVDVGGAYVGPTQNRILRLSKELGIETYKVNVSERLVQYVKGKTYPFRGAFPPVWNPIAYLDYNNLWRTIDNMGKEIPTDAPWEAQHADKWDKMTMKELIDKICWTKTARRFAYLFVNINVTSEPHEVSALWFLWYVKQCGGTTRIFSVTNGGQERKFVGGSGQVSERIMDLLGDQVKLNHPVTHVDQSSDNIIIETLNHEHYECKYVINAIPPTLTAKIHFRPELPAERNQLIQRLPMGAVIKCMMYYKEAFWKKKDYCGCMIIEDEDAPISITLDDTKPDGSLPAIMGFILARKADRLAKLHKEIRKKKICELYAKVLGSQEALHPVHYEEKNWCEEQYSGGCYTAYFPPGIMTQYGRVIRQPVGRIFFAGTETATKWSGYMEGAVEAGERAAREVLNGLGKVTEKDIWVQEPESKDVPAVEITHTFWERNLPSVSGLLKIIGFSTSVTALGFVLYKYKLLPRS", "details": "proposed mechanism of action; cited from earlier work"}, "noradrenaline reuptake": {"system": "noradrenaline reuptake", "details": "cited from earlier work"}, "[4]": {"system": "5-hydroxytryptamine reuptake", "details": "cited from earlier work"}, "dopaminergic system": {"system": "dopaminergic system", "details": "cited from earlier work"}, "cholinergic system": {"system": "cholinergic system", "details": "cited from earlier work"}}}
{"smiles": "Cc1ccc2c(c1)c1c3n2CCNC3CCC1", "note": "(centres unmarked) [Pirlindole, 2,3,3a,4,5,6-hexahydro-8-methyl-1H-pyrazino[3,2,1-jk]carbazole]", "values": [{"measurement": "IC50", "setting": "HaCaT keratinocytes", "result": 47, "unit": "µM"}, {"measurement": "IC50", "setting": "[1]; PBMC, 10 μg/ml soluble anti-CD3-antibody, [3H]-thymidine, three donors, mean", "result": 16, "unit": "µM"}, {"measurement": "Inhibitory effect on proliferation in vitro", "setting": "[1]; at a concentration of Pirlindole of 10 μmol/l (examples 2, 3)", "result": "inhibitory effect"}, {"measurement": "Release of TNFα", "setting": "TNFα", "result": "clear inhibition"}, {"measurement": "Epidermal area of the transplants", "setting": "[2]", "result": "clearly decreased"}, {"measurement": "Parameters of inflammation severity (ear weight, ear thickness)", "setting": "[3]", "result": "improvement of one or more parameters of inflammation severity"}, {"measurement": "Inhibition of monoamine oxidase A", "setting": "monoamine oxidase A", "result": "selective and reversible inhibition"}, {"measurement": "Effect on noradrenaline reuptake", "setting": "noradrenaline reuptake", "result": "inhibitory effect"}, {"measurement": "Effect on 5-hydroxytryptamine reuptake", "setting": "[4]", "result": "inhibitory effect"}, {"measurement": "Effect on the dopaminergic system", "setting": "dopaminergic system", "result": "no effect"}, {"measurement": "Effect on the cholinergic system", "setting": "cholinergic system", "result": "no effect"}]}
